Data published in the NIST ThermoML archive (doi:10.1021/je200964m).
Values joined by “and” are separate entries in the source; they are usually repeats but may differ in a detail not shown here. Identical values can stand only once. Numbers after ± are expanded uncertainties.

How the values were obtained:
[1] = molar heat capacity at constant pressure; mn = molality of the nth substance listed, in mol/kg; details: 298.15 K, 100 kPa, Liquid
[2] = mn = molality of the nth substance listed, in mol/kg; details: 298.15 K, 100 kPa, Liquid, Vibrating tube method

CCCC(=O)[O-].[Na+] [sodium butyrate] + O
[1], Flow calorimetry
Details	molar heat capacity at constant pressure [J/K/mol]
m1 = 0.01976	75.41 ± 0.14
m1 = 0.04005	75.47 ± 0.14
m1 = 0.06005	75.54 ± 0.14
m1 = 0.08053	75.61 ± 0.14
m1 = 0.102	75.68 ± 0.14
m1 = 0.2495	76.19 ± 0.14
m1 = 0.4997	77.12 ± 0.14
m1 = 0.7508	78.09 ± 0.14
m1 = 1	79.11 ± 0.14
m1 = 1.993	83.42 ± 0.15
m1 = 4	91.23 ± 0.17
m1 = 5.997	97.99 ± 0.17

[2]
Details	mass density [kg/m3]
m1 = 0.01976	997.868 ± 0.059
m1 = 0.04005	998.697 ± 0.059
m1 = 0.06005	999.507 ± 0.058
m1 = 0.08053	1000.32 ± 0.058
m1 = 0.102	1001.17 ± 0.058
m1 = 0.2495	1006.98 ± 0.059
m1 = 0.4997	1016.49 ± 0.06
m1 = 0.7508	1025.47 ± 0.061
m1 = 1	1034.04 ± 0.062
m1 = 1.993	1064.55 ± 0.073
m1 = 4	1109.06 ± 0.1
m1 = 5.997	1136.24 ± 0.13

O=C[O-].[Na+] [sodium methanoate] + O
Details	mass density, [2] [kg/m3]	molar heat capacity at constant pressure, [1] [J/K/mol]
m1 = 0.00974	997.482 ± 0.059	74.69 ± 0.25
m1 = 0.01004	997.512 ± 0.059	74.71 ± 0.25
m1 = 0.02003	997.907 ± 0.06	74.79 ± 0.25
m1 = 0.02065	997.932 ± 0.06	74.7 ± 0.25
m1 = 0.04058	998.75 ± 0.06	74.71 ± 0.25
m1 = 0.04064	998.753 ± 0.06	74.79 ± 0.25
m1 = 0.06027	999.589 ± 0.059	74.76 ± 0.25
m1 = 0.06153	999.685 ± 0.059	74.66 ± 0.25
m1 = 0.08026	1000.45 ± 0.06	74.73 ± 0.25
m1 = 0.08098	1000.47 ± 0.06	74.63 ± 0.25
m1 = 0.1002	1001.25 ± 0.059	74.72 ± 0.25
m1 = 0.1006	1001.27 ± 0.059	74.62 ± 0.25
m1 = 0.1998	1005.36 ± 0.06	74.62 ± 0.25
m1 = 0.25	1007.39 ± 0.06	74.49 ± 0.25
m1 = 0.5003	1017.41 ± 0.062	74.3 ± 0.25
m1 = 0.5005	1017.34 ± 0.062	74.41 ± 0.25
m1 = 0.75	1027.24 ± 0.063	74.33 ± 0.25
m1 = 0.7507	1027.17 ± 0.063	74.18 ± 0.24
m1 = 1	1036.61 ± 0.065	73.86 ± 0.24
m1 = 1.008	1037.01 ± 0.064	74.26 ± 0.25
m1 = 2	1072.42 ± 0.077	74.32 ± 0.24
m1 = 2.576	1092.07 ± 0.084	75.46 ± 0.25
m1 = 3.968	1134.81 ± 0.1	75.93 ± 0.25
m1 = 4	1135.38 ± 0.1	75.98 ± 0.25
m1 = 5.998	1188.91 ± 0.14	78.43 ± 0.26
m1 = 6.036	1190.2 ± 0.14	77.81 ± 0.26
m1 = 8.011	1235.13 ± 0.17	81.13 ± 0.27
m1 = 10.01	1275.62 ± 0.2	84.02 ± 0.28

CCC(=O)[O-].[Na+] [sodium propanoate] + O
[1], Flow calorimetry
Details	molar heat capacity at constant pressure [J/K/mol]
m1 = 0.01002	75.35 ± 0.14
m1 = 0.02029	75.37 ± 0.14
m1 = 0.04064	75.41 ± 0.14
m1 = 0.06027	75.44 ± 0.14
m1 = 0.08026	75.47 ± 0.14
m1 = 0.1002	75.51 ± 0.14
m1 = 0.1998	75.69 ± 0.14
m1 = 0.5005	76.31 ± 0.14
m1 = 0.7511	76.87 ± 0.14
m1 = 1	77.48 ± 0.14
m1 = 1.982	80.19 ± 0.14
m1 = 3.972	86.51 ± 0.16
m1 = 5.982	92.7 ± 0.17
m1 = 8.004	98.52 ± 0.17

[2]
Details	mass density [kg/m3]
m1 = 0.01002	997.478 ± 0.059
m1 = 0.02029	997.9 ± 0.059
m1 = 0.04064	998.74 ± 0.059
m1 = 0.06027	999.536 ± 0.059
m1 = 0.08026	1000.38 ± 0.06
m1 = 0.1002	1001.21 ± 0.059
m1 = 0.1998	1005.24 ± 0.059
m1 = 0.5005	1016.94 ± 0.061
m1 = 0.7511	1026.37 ± 0.062
m1 = 1	1035.33 ± 0.063
m1 = 1.982	1067.68 ± 0.074
m1 = 3.972	1119.87 ± 0.1
m1 = 5.982	1158.32 ± 0.13
m1 = 8.004	1185.89 ± 0.16

CC(=O)[O-].[Na+] [sodium ethanoate] + O
[1], Flow calorimetry
Details	molar heat capacity at constant pressure [J/K/mol]
m1 = 0.01999	75.34 ± 0.14
m1 = 0.02177	75.33 ± 0.14
m1 = 0.03988	75.34 ± 0.14
m1 = 0.04259	75.33 ± 0.14
m1 = 0.06003	75.33 ± 0.14
m1 = 0.06004	75.33 ± 0.14
m1 = 0.08011	75.34 ± 0.14
m1 = 0.08018	75.34 ± 0.14
m1 = 0.1002	75.34 ± 0.14
m1 = 0.25	75.37 ± 0.14
m1 = 0.4956	75.48 ± 0.14
m1 = 0.4998	75.48 ± 0.14
m1 = 0.9999	75.86 ± 0.14
m1 = 1.997	77.13 ± 0.14
m1 = 2.003	77.13 ± 0.14
m1 = 4.532	81.99 ± 0.15

[2]
Details	mass density
m1 = 0.01999	997.898 ± 0.06 kg/m3
m1 = 0.02177	997.982 ± 0.059 kg/m3
m1 = 0.03988	998.731 ± 0.059 kg/m3
m1 = 0.04259	998.856 ± 0.059 kg/m3
m1 = 0.06003	999.574 ± 0.059 kg/m3
m1 = 0.06004	999.577 ± 0.059 kg/m3
m1 = 0.08011	1000.41 ± 0.059 kg/m3
m1 = 0.08018	1000.42 ± 0.059 kg/m3
m1 = 0.1002	1001.25 ± 0.059 kg/m3 and 1001.25 ± 0.06 kg/m3
m1 = 0.25	1007.38 ± 0.06 kg/m3
m1 = 0.4956	1017.13 ± 0.061 kg/m3
m1 = 0.4998	1017.29 ± 0.061 kg/m3
m1 = 0.9999	1036.14 ± 0.064 kg/m3
m1 = 1.997	1070.48 ± 0.071 kg/m3
m1 = 2.003	1070.59 ± 0.071 kg/m3
m1 = 4.532	1141.59 ± 0.11 kg/m3
